For data set [1], the system named is morphine-dependent Sprague-Dawley rats. The experiment in a line: Naloxone-precipitated opioid withdrawal signs after 5-day morphine regimen. Type of data set: in vivo, rat. Particulars: for Withdrawal signs after naloxone challenge on Day 9: Study 2: adolescent male and female rats, 5 days morphine, then 3 days ketamine 1 mg/kg bid or rapastinel 5 mg/kg alternate days i.p., naloxone 1 mg/kg; for Withdrawal signs after naloxone challenge on day 9, adolescent vs adult: Study 3: adolescent and adult rats. As to the method:
Male and female adolescent and adult Sprague-Dawley rats (PN 28-30 and PN 60-75) from Charles River Laboratories were treated with a 5-day, increasing dose morphine regimen (5 mg/kg bid, increasing 5 mg/kg/day to 25 mg/kg) to induce opioid dependency. Animals were group-housed in a 12/12 light/dark cycle with free access to water and standard lab chow. Agents were administered by intraperitoneal injection. In Study 1, animals received morphine (25 mg/kg) on day 6 followed 1 hour later by a naloxone challenge (1 mg/kg) and withdrawal behaviors were quantified as described by Gellert and Holtzman (J Pharmacol Exp Ther. 1978; 205(3):536-546). A second morphine/naloxone challenge was given 21 days later (study day 27). In Study 2 (see FIG. 1), male and female adolescent rats received the same morphine treatment, but on day 6 they received naloxone only (1 mg/kg) to precipitate withdrawal and withdrawal signs (wet dog shakes, diarrhea, mastication, salivation, ptosis and abnormal posture) were assessed as in Study 1. Then animals received saline, ketamine (1 mg/kg, bid) or rapastinel (5 mg/kg on alternate days). On day 9, animals received a second naloxone challenge (1 mg/kg) without a previous morphine treatment, and withdrawal signs were quantified to measure efficacy of ketamine and rapastinel. Study 3 compared the ability of rapastinel to accelerate the loss of opioid withdrawal signs in adult and adolescent rats and Study 4 compared rapastinel effects in male and female adults. Treatment results were analyzed by sequential 3-way (age×sex×treatment) and 1 way (treatment) ANOVA using NCSS followed by post-hoc Fishers LSD multiple comparison test to compare differences between groups. All experiments were approved by the Duke University IACUC and conducted in accordance with the NIH Guide for the Care and Use of Laboratory Animals.
Opioid withdrawal: Animals are treated with saline or naloxone as described. Ten minutes later they are scored by a modification of the Gellert/Holtzman scale for wet dog shakes, diarrhea, mastication, salivation, ptosis and abnormal posture.

For data set [2], the system named is morphine-dependent rats. In words: Withdrawal-precipitated hyperalgesia, von Frey test of pain sensitivity. Type of data set: in vivo, rat. The text has this: FIG. 6. Schematic for withdrawal-precipitated hyperalgesia studies and schematic for von Frey test of pain sensitivity.
There was no difference in hyperalgesia caused by morphine withdrawal before treatment; there was significant expression of naloxone-precipitated hyperalgesia in morphine dependent animals.

Data set [3] deals with adult male and female rats. The experiment in a line: Relapse to morphine conditioned place preference (CPP). Type of data set: in vivo, rat. As to conditions: rapastinel 5 mg/kg during extinction days 6-9 and before relapse test, morphine 2.5 mg/kg. As to the method: CPP and extinction were conducted in adult male and female rats with a biased CPP procedure adapted from Mueller et al. (Mueller et al., Behavior. Brain Res 136: 389-397(2002)). CPP is conducted in a two-sided chamber. Side 1 had white walls and plexiglass flooring, and Side 2 had black walls and plastic mesh flooring (preferred side).
Rats went through a conditioned place preference procedure involving daily pairing with saline and morphine (2.5 mg/kg) on opposite sides of the CPP apparatus for 4 days. On habituation day (day 1), animals were allowed to explore the whole apparatus for 30 minutes. On days 2-4, rats were restricted to Side 1 for morphine (2.5 mg/kg sc) and Side 2 for saline (alternated am and pm daily). On day 5 they received a test of conditioning in which they were allowed to explore the whole apparatus. For the next 4 days (days 6-9) they received daily saline or rapastinel (5 mg/kg) 30 minutes before twice daily extinction trials in which animals received saline on both sides of the apparatus. They received an extinction test in which they were allowed to explore the entire apparatus on day 10, and then a relapse test on day 11 in which they received a dose of saline or rapastinel, followed by saline or 2.5 mg/kg of morphine and were allowed to explore the apparatus.
N=5 for rapastinel and 3 for saline.

The conditions of data set [4]: animal models (Moskal et al., 2016); cited from earlier work.
In data set [5] the test system is GluR1. In words: GluR1 expression in medial prefrontal cortex by Western blot. Type of data set: in vivo, rat. Particulars: mPFC dissected at end of treatment. As for the experimental part:
The medial prefrontal cortex (mPFC) Brain Region is responsible for decision making in the context of reward (opioids) and penalty (withdrawal). Rats were treated with morphine in accordance with the methods of Example 1. The mPFC was dissected from rats at end of treatment and GluR1 expression levels were measured with a Western Blot test.

For data set [6] the following is noted: humans; cited from earlier work.
For data set [7] the following is noted: animal models; cited from earlier work.

Entries after “also recorded” stand apart in the source; their conditions may differ. Residues, ends and D or L forms follow the SMILES beside them.

Take `CNC1(c2ccccc2Cl)CCCCC1=O` (stereo not drawn) [ketamine]: in data set [1], the “Withdrawal signs after naloxone challenge on Day 9” value is listed as “not ketamine extinguished naloxone-precipitated withdrawal; also recorded: not ketamine caused an enhanced loss of opioid withdrawal signs; also recorded: not ketamine accelerated loss of withdrawal signs; also recorded: only marginally effective”.

Turning to `C=CCN1CC[C@]23c4c5ccc(O)c4O[C@H]2C(=O)CC[C@@]3(O)[C@H]1C5` [naloxone], the “Withdrawal response to morphine/naloxone challenge on Day 6” value in data set [1] (Study 1: 5 days morphine, morphine 25 mg/kg then naloxone 1 mg/kg 1 hour later, adolescent and adult rats) is given as “elicited a robust withdrawal response”.

Regarding `C[C@@H](O)[C@H](N)C(=O)N1CCCC1C(=O)N1CCC[C@H]1C(=O)N[C@H](C(N)=O)[C@@H](C)O` (stereo partly drawn) [Rapastinel, rapastinel] (HELM PEPTIDE1{T.[O=C(C1CCCN1[*:1])[*:2]].P.T.[am]}$$$$V2.0), the “Withdrawal signs after naloxone challenge on Day 9” value in data set [1] was “extinguished naloxone-precipitated withdrawal; also recorded: caused an enhanced loss of opioid withdrawal signs; also recorded: accelerated loss of withdrawal signs”. Moreover, the “Withdrawal signs after naloxone challenge on day 9, adolescent vs adult” value in data set [1] (5 days morphine then 3 days saline or rapastinel) was “extinguished naloxone-precipitated withdrawal comparably in adolescent and adult rats; also recorded: accelerated extinction of opioid withdrawal at both ages; also recorded: significantly enhanced recovery from opioid dependence in both adolescent and adult rats”; in data set [1] (5 days morphine then 3 days saline or rapastinel, listed as rapastinel) it was “effective”. Besides, the “Withdrawal signs after naloxone challenge on day 9, male vs female” value in data set [1] (Study 4: male and female rats, 5 days morphine then 3 days saline or rapastinel) is “extinguished naloxone-precipitated withdrawal comparably in male and female rats”. Besides, in data set [2] (morphine-dependent rats, Day 9 following treatment), the Hyperalgesia scores result is on record as “trend towards a return to baseline (SS) hyperalgesia scores; also recorded: blunts hyperalgesia”. Besides, the “Baseline (SS) hyperalgesia response” value in data set [2] (saline (morphine-naive) rats) is listed as “does not alter baseline (SS) response”. Also, the entries for the “Difference in time spent on drug-paired side, day 11 (relapse test) vs day 10 (extinction trial)” value in data set [3] and in data set [3] (listed as rapastinel) were “blocks relapse to conditioned place preference” and “blunted morphine-induced relapse”, respectively. For the same compound, the “Negative side effects during treatment” value in data set [4] is “has not been shown to produce any negative side effects”. Besides, the “GluR1 expression in the mPFC” value in data set [5] was “no significant effect”.

Consider `CN1CC[C@]23c4c5ccc(O)c4O[C@H]2[C@@H](O)C=C[C@H]3[C@H]1C5` [morphine], for which the “GluR1 expression in the mPFC” value in data set [5] is “higher expression of GluR1; also recorded: significantly (p<0.001) higher GluR1 expression”.

On to `N[C@@H]1CON=C1O` [d-cycloserine], for which the Half-life entry in data set [6] was “short half-life”. Moreover, the “CPP extinction and naloxone place aversion” value in data set [7] was “facilitated CPP extinction and naloxone place aversion”.

Values taken from patent publication US20220031798A1, “METHODS AND COMPOSITIONS FOR THE TREATMENT OF OPIOID DEPENDENCE AND FOR THE TREATMENT OF PAIN” (Duke University, priority 2018, published 2022).
